# Measurements as given in patent publication US11453666B2, “Autotaxin inhibitory compounds” (Cancer Research Technology Limited, priority 2015, dated 2022).
# Like-named read-outs stand apart in the source and are kept apart here.
# Target: human recombinant ATX (Homo sapiens, UniProt Q13822)
# Assay: Autotaxin (ATX) activity Quanta Red assay
# Assay type: biochemical
# Conditions: read-out: Activity (ATX activity, Quanta Red assay; IC50)
# Summary of the method: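 Recombinant human ATX reaction stopped after 2 h with Quanta Red stop solution; fluorescence read at […]. Controls with DMSO, with and without ATX; IC50 in duplicate.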
Structure (SMILES),IC50,"IC50 (human recombinant ATX 0.8 μg/mL, 2 hours at room temperature, IC50 determined in duplicate)"
"O=C(CCc1nc2cccnc2n1Cc1ccc(F)c(F)c1)NC[C@H](O)c1ccccc1 [Example 67, 3-[3-(3,4-Difluoro-benzyl)-3H-imidazo[4,5-b]pyridin-2-yl]-N-((R)-2-hydroxy-2-phenyl-ethyl)-propionamide]",0.169 µM,
"C[C@H](NC(=O)CCc1nc2cccnc2n1Cc1ccc(F)cc1)c1ccccn1 [Example 68, 3-[3-(4-Fluoro-benzyl)-3H-imidazo[4,5-b]pyridin-2-yl]-N-((S)-1-pyridin-2-yl-ethyl)-propionamide]",0.212 µM,
"O=C(CCc1nc2cccnc2n1Cc1ccc(OC(F)(F)F)cc1)Nc1nccs1 [Example 69, N-Thiazol-2-yl-3-[3-(4-trifluoromethoxy-benzyl)-3H-imidazo[4,5-b]pyridin-2-yl]-propionamide]",0.214 µM,
"C[C@H](NC(=O)CCc1nc2cc(Br)cnc2n1Cc1ccc(F)cc1)c1ccc(Cl)cc1 [Example 70, 3-[6-Bromo-3-(4-fluoro-benzyl)-3H-imidazo[4,5-b]pyridin-2-yl]-N-[(S)-1-(4-chloro-propionimide)]]",0.242 µM,
"O=C(CCc1nc2cccnc2n1Cc1ccc(F)c(F)c1)NCC1CCCCC1 [Example 71, N-Cyclohexylmethyl-3-[3-(3,4-difluoro-benzyl)-3H-imidazo[4,5-b]pyridin-2-yl]-propionamide]",0.243 µM,
"C[C@H](NC(=O)CCc1nc2cccnc2n1Cc1ccc(F)c(F)c1)c1ccccn1 [Example 72, 3-[3-(3,4-Difluoro-benzyl)-3H-imidazo[4,5-b]pyridin-2-yl]-N-((S)-1-pyridin-2-yl-ethyl)-propionamide]",0.247 µM,
"O=C(CCc1nc2cccnc2n1Cc1ccc(OC(F)(F)F)cc1)Nc1nncs1 [Example 73, N-[1,3,4]Thiadiazol-2-yl-3-[3-(4-trifluoromethoxy-benzyl)-3H-imidazo[4,5-b]pyridin-2-yl]-propionamide]",0.267 µM,
"COc1cc(OC(F)(F)F)ccc1CNC(=O)CCc1nc2cccnc2n1Cc1ccc(F)c(F)c1 [Example 74, 3-[3-(3,4-Difluoro-benzyl)-3H-imidazo[4,5-b]pyridin-2-yl]-N-(2-methoxy-4-trifluoromethoxy-benzyl)-propionamide]",0.339 µM,
"O=C(CCc1nc2cccnc2n1Cc1ccc(F)c(F)c1)NCc1ccccn1 [Example 75, 3-[3-(3,4-Difluoro-benzyl)-3H-imidazo[4,5-b]pyridin-2-yl]-N-pyridin-2-ylmethyl-propionamide]",0.424 µM,
"C[C@H](NC(=O)CCc1nc2cccnc2n1Cc1ccc(OCc2ccccc2)cc1)c1ccc(Cl)cc1 [Example 76, 3-[3-(4-Benzyloxy-benzyl)-3H-imidazo[4,5-b]pyridin-2-yl]-N-[(S)-1-(4-chloro-phenyl)-ethyl]-propionamide]",0.5 µM,
"Cc1csc(NC(=O)CCc2nc3cccnc3n2Cc2ccc(OC(F)(F)F)cc2)n1 [Example 77, N-(4-Methyl-thiazol-2-yl)-3-[3-(4-trifluoromethoxy-benzyl)-3H-imidazo[4,5-b]pyridin-2-yl]-propionamide]",0.714 µM,
"O=C(CCc1nc2cccnc2n1Cc1ccc(OC(F)(F)F)cc1)Nc1ncco1 [Example 78, N-Oxazol-2-yl-3-[3-(4-trifluoromethoxy-benzyl)-3H-imidazo[4,5-b]pyridin-2-yl]-propionamide]",0.8 µM,
"C[C@H](NC(=O)CCc1nc2cccnc2n1Cc1ccc(OCc2ccccc2)cc1)c1ccc(F)cc1 [Example 80, 3-[3-(4-Benzyloxy-benzyl)-3H-imidazo[4,5-b]pyridin-2-yl]-N-[(S)-1-(4-fluoro-phenyl)-ethyl]-propionamide]",0.844 µM,
"Cc1cnc(NC(=O)CCc2nc3cccnc3n2Cc2ccc(OC(F)(F)F)cc2)s1 [Example 81, N-(5-Methyl-thiazol-2-yl)-3-[3-(4-trifluoromethoxy-benzyl)-3H-imidazo[4,5-b]pyridin-2-yl]-propionamide]",1.48 µM,
"O=C(CCc1nc2cccnc2n1Cc1ccc(F)c(F)c1)NCc1ccncc1 [Example 82, 3-[3-(3,4-Difluoro-benzyl)-3H-imidazo[4,5-b]pyridin-2-yl]-N-pyridin-4-ylmethyl-propionamide]",0.987 µM,
"COc1ccc(Cn2c(CCC(=O)N[C@@H](C)c3ccc(Cl)cc3)nc3cccnc32)cc1 [Example 84, N-[(S)-1-(4-Chloro-phenyl)-ethyl]-3-[3-(4-methoxy-benzyl)-3H-imidazo[4,5-b]pyridin-2-yl]-propionamide]",,0.003 µM
"C[C@H](NC(=O)CCc1nc2cccnc2n1Cc1ccc(F)cc1)c1ccc(F)cc1 [Example 88, 3-[3-(4-Fluoro-benzyl)-3H-imidazo[4,5-b]pyridin-2-yl]-N-[(S)-1-(4-fluoro-phenyl)-ethyl]-propionamide]",0.006 µM,

# The next lines start with results.
IC50,Structure (SMILES),"IC50 (human recombinant ATX 0.8 μg/mL, 2 hours at room temperature, IC50 determined in duplicate)"
0.04 µM,"CC(C)(C)OC(=O)N1CCC[C@@H](CNC(=O)CCc2nc3cccnc3n2Cc2ccc(OC(F)(F)F)cc2)C1 [Example 54, (S)-3-({3-[3-(4-Trifluoromethoxy-benzyl)-3H-imidazo[4,5-b]pyridin-2-yl]-propionylamino}-methyl)-piperidine-1-carboxylic acid tert-butyl ester]",
0.04 µM,"O=C(CCc1nc2cccnc2n1Cc1ccc(F)c(F)c1)N[C@H]1CCc2ccccc21 [Example 55, 3-[3-(3,4-Difluoro-benzyl)-3H-imidazo[4,5-b]pyridin-2-yl]-N-(S)-indan-1-yl-propionamide]",
0.045 µM,"CC(NC(=O)CCc1nc2cccnc2n1Cc1ccc(OC(F)(F)F)cc1)C1CCOCC1 (stereo not drawn) [Example 56, N-[1-(Tetrahydro-pyran-4-yl)-ethyl]-3-[3-(4-trifluoromethoxy-benzyl)-3H-imidazo[4,5-b]pyridin-2-yl]-propionamide]",
0.058 µM,"O=C(CCc1nc2cccnc2n1Cc1ccc(F)c(F)c1)NCc1ccc(OC(F)(F)F)cc1 [Example 57, 3-[3-(3,4-Difluoro-benzyl)-3H-imidazo[4,5-b]pyridin-2-yl]-N-(4-trifluoromethoxy-benzyl)-propionamide]",
0.061 µM,"CN(C)c1ccc(CNC(=O)CCc2nc3cccnc3n2Cc2ccc(F)cc2)cc1 [Example 58, N-(4-Dimethylamino-benzyl)-3-[3-(4-fluoro-benzyl)-3H-imidazo[4,5-b]pyridin-2-yl]-propionamide]",
0.063 µM,"O=C(CCc1nc2cccnc2n1Cc1ccc(F)c(F)c1)N[C@@H]1c2ccccc2C[C@H]1O [Example 59, 3-[3-(3,4-Difluoro-benzyl)-3H-imidazo[4,5-b]pyridin-2-yl]-N-((1R,2R)-2-hydroxy-indan-1-yl)-propionamide]",
0.089 µM,"C[C@H](NC(=O)CCc1nc2cccnc2n1Cc1ccc(OC(F)(F)F)cc1)C1CC1 [Example 60, N-((S)-1-Cyclopropyl-ethyl)-3-[3-(4-trifluoromethoxy-benzyl)-3H-imidazo[4,5-b]pyridin-2-yl]-propionamide]",
0.1 µM,C[C@H](NC(=O)CCc1nc2cc(Br)cnc2n1Cc1ccc(OC(F)(F)F)cc1)c1ccc(Cl)cc1 [Example 61],
0.125 µM,"O=C(CCc1nc2cccnc2n1Cc1ccc(OC(F)(F)F)cc1)NCC1CCOCC1 [Example 62, N-(Tetrahydro-pyran-4-ylmethyl)-3-[3-(4-trifluoromethoxy-benzyl)-3H-imidazo[4,5-b]pyridin-2-yl]-propionamide]",
0.139 µM,"CN(C)c1ccc(CNC(=O)CCc2nc3cccnc3n2Cc2ccc(F)c(F)c2)cc1 [Example 63, 3-[3-(3,4-Difluoro-benzyl)-3H-imidazo[4,5-b]pyridin-2-yl]-N-(4-dimethylamino-benzyl)-propionamide]",
0.144 µM,"O=C(CCc1nc2cccnc2n1Cc1ccc(F)cc1)N[C@H](CO)c1ccccc1 [Example 64, 3-[3-(4-Fluoro-benzyl)-3H-imidazo[4,5-b]pyridin-2-yl]-N-((S)-2-hydroxy-1-phenyl-ethyl)-propionamide]",
0.155 µM,"O=C(CCc1nc2cccnc2n1Cc1ccc(F)c(F)c1)NC[C@@H](O)c1ccccc1 [Example 65, 3-[3-(3,4-Difluoro-benzyl)-3H-imidazo[4,5-b]pyridin-2-yl]-N-((S)-2-hydroxy-2-phenyl-ethyl)-propionamide]",
0.162 µM,"CC(C)(C)OC(=O)N1CCC[C@H](CNC(=O)CCc2nc3cccnc3n2Cc2ccc(OC(F)(F)F)cc2)C1 [Example 66, (R)-3-({3-[3-(4-Trifluoromethoxy-benzyl)-3H-imidazo[4,5-b]pyridin-2-yl]-propionylamino}-methyl)-piperidine-1-carboxylic acid tert-butyl ester]",
0.094 µM,"Cc1ccc2nc(CCC(=O)N[C@@H](C)c3ccc(Cl)cc3)n(Cc3ccc(F)cc3)c2n1 [Example 79, N-[(S)-1-(4-Chloro-phenyl)-ethyl]-3-[3-(4-fluoro-benzyl)-5-methyl-3H-imidazo[4,5-b]pyridin-2-yl]-propionamide]",
0.002 µM,"C[C@H](NC(=O)CCc1nc2cccnc2n1Cc1ccc(F)cc1)c1ccc(Br)cc1 [Example 83, N—[(S)-1-(4-bromo-phenyl)-ethyl]-3-[3-(4-fluoro-benzyl)-3H-imidazo[4,5-b]pyridin-2-yl]-propionamide]",
0.004 µM,"Cc1ccc([C@H](C)NC(=O)CCc2nc3cccnc3n2Cc2ccc(F)c(F)c2)cc1 [Example 85, 3-[3-(3,4-Difluoro-benzyl)-3H-imidazo[4,5-b]pyridin-2-yl]-N-((S)-1-p-tolyl-ethyl)-propionamide]",
0.005 µM,"C[C@H](NC(=O)CCc1nc2cccnc2n1Cc1ccc(F)c(F)c1)c1ccccc1 [Example 86, 3-[3-(3,4-Difluoro-benzyl)-3H-imidazo[4,5-b]pyridin-2-yl]-N-((S)-1-phenyl-ethyl)-propionamide]",
0.006 µM,"C[C@H](NC(=O)CCc1nc2cccnc2n1Cc1ccc(F)cc1)c1ccccc1 [Example 87, 3-[3-(4-Fluoro-benzyl)-3H-imidazo[4,5-b]pyridin-2-yl]-N-((S)-1-phenyl-ethyl)-propionamide]",
0.008 µM,"CC[C@H](NC(=O)CCc1nc2cccnc2n1Cc1ccc(F)c(F)c1)c1ccccc1 [Example 89, 3-[3-(3,4-Difluoro-benzyl)-3H-imidazo[4,5-b]pyridin-2-yl]-N-((S)-1-phenyl-propyl)-propionamide]",
